Assay results from paper PMC6230509 (Neuropharmacology, 2018).

Tests used:
[1] = biological target: 5-HT2A (Homo sapiens, UniProt P28223); experiment: NIMH PDSP radioligand competition binding, 5-HT2A
[2] = biological target: T1, 5-HT2C (Homo sapiens, UniProt P28335); experiment: NIMH PDSP radioligand competition binding, 5-HT2C
T1 sequence (P28335 33-458): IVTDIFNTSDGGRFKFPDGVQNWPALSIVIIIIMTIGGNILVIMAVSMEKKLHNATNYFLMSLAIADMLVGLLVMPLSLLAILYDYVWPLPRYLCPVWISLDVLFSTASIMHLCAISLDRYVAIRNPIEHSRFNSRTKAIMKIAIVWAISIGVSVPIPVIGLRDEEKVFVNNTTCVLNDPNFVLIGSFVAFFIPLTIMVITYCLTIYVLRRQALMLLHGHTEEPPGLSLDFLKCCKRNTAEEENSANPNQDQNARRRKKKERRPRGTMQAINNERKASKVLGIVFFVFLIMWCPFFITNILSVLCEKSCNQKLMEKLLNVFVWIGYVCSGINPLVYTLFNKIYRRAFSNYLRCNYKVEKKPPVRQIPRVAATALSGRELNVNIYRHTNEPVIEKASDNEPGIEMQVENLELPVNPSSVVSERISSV

[3] = biological target: 5-HT5A (Homo sapiens, UniProt P47898); experiment: NIMH PDSP radioligand competition binding, 5-HT5A
[4] = biological target: 5-HT7 (Homo sapiens, UniProt P34969); experiment: NIMH PDSP radioligand competition binding, 5-HT7
[5] = biological target: T2, α2A (Homo sapiens, UniProt P08913); experiment: NIMH PDSP radioligand competition binding, α2A
T2 sequence (P08913 1-465): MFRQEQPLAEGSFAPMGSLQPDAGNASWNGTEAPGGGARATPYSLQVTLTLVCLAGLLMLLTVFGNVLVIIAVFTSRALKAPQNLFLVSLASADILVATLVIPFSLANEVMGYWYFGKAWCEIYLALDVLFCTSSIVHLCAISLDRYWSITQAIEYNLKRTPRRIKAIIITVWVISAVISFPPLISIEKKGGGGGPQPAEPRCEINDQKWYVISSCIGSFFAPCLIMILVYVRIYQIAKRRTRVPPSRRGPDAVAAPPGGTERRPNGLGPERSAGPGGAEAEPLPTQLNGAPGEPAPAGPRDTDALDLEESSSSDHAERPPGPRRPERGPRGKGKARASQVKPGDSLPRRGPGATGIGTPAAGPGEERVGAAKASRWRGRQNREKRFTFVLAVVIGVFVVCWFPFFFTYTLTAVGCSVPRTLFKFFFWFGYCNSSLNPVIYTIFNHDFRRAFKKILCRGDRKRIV

[6] = biological target: T3, α2B (Homo sapiens, UniProt P18089); experiment: NIMH PDSP radioligand competition binding, α2B
T3 sequence (P18089 1-450): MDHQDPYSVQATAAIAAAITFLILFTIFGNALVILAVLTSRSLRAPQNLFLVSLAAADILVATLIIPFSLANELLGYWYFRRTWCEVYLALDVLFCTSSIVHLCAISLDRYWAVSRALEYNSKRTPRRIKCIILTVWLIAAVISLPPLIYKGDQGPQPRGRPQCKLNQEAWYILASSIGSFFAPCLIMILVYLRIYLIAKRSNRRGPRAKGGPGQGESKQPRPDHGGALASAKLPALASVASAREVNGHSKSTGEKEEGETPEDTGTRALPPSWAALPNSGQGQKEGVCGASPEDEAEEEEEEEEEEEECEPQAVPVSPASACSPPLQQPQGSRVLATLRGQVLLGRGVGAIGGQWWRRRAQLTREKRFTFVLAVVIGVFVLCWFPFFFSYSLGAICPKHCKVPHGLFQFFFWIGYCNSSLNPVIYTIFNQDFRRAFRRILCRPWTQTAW

[7] = biological target: D1 (Homo sapiens, UniProt P21728); experiment: NIMH PDSP radioligand competition binding, D1
[8] = biological target: D3 (Homo sapiens, UniProt P35462); experiment: NIMH PDSP radioligand competition binding, D3
[9] = biological target: T4, D4 (Homo sapiens, UniProt P21917); experiment: NIMH PDSP radioligand competition binding, D4
T4 sequence (P21917 1-419): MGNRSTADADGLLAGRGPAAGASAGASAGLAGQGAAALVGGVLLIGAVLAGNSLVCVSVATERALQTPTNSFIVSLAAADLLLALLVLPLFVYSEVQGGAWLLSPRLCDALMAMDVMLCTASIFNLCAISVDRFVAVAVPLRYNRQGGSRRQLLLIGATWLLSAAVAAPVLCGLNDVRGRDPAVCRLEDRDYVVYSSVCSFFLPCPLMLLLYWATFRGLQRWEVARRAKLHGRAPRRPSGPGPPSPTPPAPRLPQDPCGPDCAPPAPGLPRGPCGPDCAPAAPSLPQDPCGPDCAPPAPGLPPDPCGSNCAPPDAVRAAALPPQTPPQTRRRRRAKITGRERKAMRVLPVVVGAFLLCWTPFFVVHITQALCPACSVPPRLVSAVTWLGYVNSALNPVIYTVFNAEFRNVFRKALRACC

[10] = biological target: μ-opioid receptor (MOR) (Homo sapiens, UniProt P35372); experiment: NIMH PDSP radioligand competition binding, MOR
[11] = biological target: κ-opioid receptor (KOR) (Homo sapiens, UniProt P41145); experiment: NIMH PDSP radioligand competition binding, KOR
[12] = biological target: H3 (Cavia porcellus, UniProt Q9JI35); experiment: NIMH PDSP radioligand competition binding, H3; design: species or system Guinea pig
[13] = biological target: σ1 (Rattus norvegicus, UniProt Q9R0C9); experiment: NIMH PDSP radioligand competition binding, σ1
[14] = biological target: T5, σ2 (Rattus norvegicus, UniProt Q5U3Y7); experiment: NIMH PDSP radioligand competition binding, σ2
T5 sequence (Q5U3Y7 1-176): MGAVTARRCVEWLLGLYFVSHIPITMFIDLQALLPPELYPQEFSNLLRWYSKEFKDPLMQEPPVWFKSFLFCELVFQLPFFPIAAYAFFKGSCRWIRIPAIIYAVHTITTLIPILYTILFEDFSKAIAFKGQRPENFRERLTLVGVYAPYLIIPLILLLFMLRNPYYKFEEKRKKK

[15] = Binding Affinity (Ki, nM), [3H]SCH23390, cloned human receptor
[16] = Binding Affinity (Ki, nM), [3H]N-methylspiperone, cloned human receptor

Row | SMILES | 5-HT2A binding affinity, fold higher than the affinity of DALT [1] [fold] | Ki [1] [µM] | 5-HT2A binding affinity, fold higher than the affinity of any other DALT derivative ([1]; relative to any other DALT derivative) | Ki [2] [µM] | Ki [3] [µM] | Ki [4] [µM] | Ki [5] [µM] | Ki [6] [µM] | Ki [7, 15] [nM] | Ki ([7]; Ki value, bound stated) [nM] | Ki [8] [µM] | Ki [9, 16] [nM] | Ki ([9]; Ki value, bound stated) [nM] | Ki [10] [µM] | Ki [11] [µM] | Ki [12] [µM] | Ki [13] [µM] | Ki [14] [µM] | σ1 affinity, fold higher than the parent compound ([13]; relative to DALT) [fold]
1 | C=CCN(CC=C)CCc1c(-c2ccccc2)[nH]c2ccccc12 [2-Ph-DALT, 2-phenyl-N,N-diallyltryptamine] | 54 | 0.013 | at least 10 fold | 0.278 | 1.67 | > 10 | 0.085 | 0.078 | 2790 | < 10000 | 0.342 | 1000 | < 10000 | > 10 | 0.589 | > 10 | > 10 | 0.717 | 
2 | C=CCN(CC=C)CCc1c[nH]c2cccc(OC(C)=O)c12 [4-AcO-DALT, 4-acetoxy-N,N-diallyltryptamine] |  | 0.565 |  | 1.52 | 5.84 | 0.724 | 0.342 | 0.17 | > 10000 |  | > 10 | > 10000 |  | > 10 | 5.23 | > 10 | 0.299 | > 10 | 
3 | C=CCN(CC=C)CCc1c[nH]c2cccc(O)c12 [4-HO-DALT, 4-hydroxy-N,N-diallyltryptamine] |  | 0.652 |  | 2.11 | > 10 | 0.6 | 1.21 | > 10 | > 10000 |  | 1.57 | > 10000 |  | > 10 | > 10 | > 10 | 2.77 | > 10 | 
4 | C=CCN(CC=C)CCc1c(C)[nH]c2ccc(F)cc12 [5-F-2-Me-DALT, 5-fluoro-2-methyl-N,N-diallyltryptamine] |  | 0.655 |  | 0.541 | 1.92 | 0.493 | 0.053 | 0.108 | > 10000 |  | 0.414 | > 10000 |  | > 10 | 0.58 | 1.4 | 0.531 | 0.396 | 
5 | C=CCN(CC=C)CCc1c(C)[nH]c2ccc(OC)cc12 [5-MeO-2-Me-DALT, 5-methoxy-2-methyl-N,N-diallyltryptamine] |  | 1.15 |  | > 10 | 1.82 | > 10 | 0.189 | 0.335 | > 10000 |  | 2.4 | > 10000 |  | > 10 | 0.391 | 1.13 | 0.427 | 1.24 | 
6 | C=CCN(CC=C)CCc1c[nH]c2c(CC)cccc12 [7-Et-DALT, 7-ethyl-N,N-diallyltryptamine] |  | 1.52 |  | 0.443 | > 10 | > 10 | 0.141 | 0.489 | > 10000 |  | 1.08 | > 10000 |  | 2.67 | 0.58 | > 10 | 0.022 | 0.136 | ~5
